The subject of assay [1] is HeLa. As to the kind of experiment: Cytotoxicity against human HeLa cells after 48 hrs by MTT assay. In kind it is functional, cell-based. On the technique in general: Tetrazolium assays rely on reduction of a dye to a coloured formazan, in cell work by metabolically active cells.
The test system of assay [2] is A549. Briefly: Cytotoxicity against human A549 cells after 48 hrs by MTT assay. To be noted: A549, 48 h. It counts as functional, cell-based.
Assay [3] in a line: Cytotoxicity against human HCT8 cells after 48 hrs by MTT assay. It counts as functional, cell-based. To be noted: HCT-8, 48 h.
Assay [4] relates to HL-60. As to the kind of experiment: Cytotoxicity against human HL60 cells after 48 hrs by cell counting kit-8 assay. In kind it is functional, cell-based. As to conditions: HL-60, 48 h.
The subject of assay [5] is HeLa. As to the kind of experiment: Induction of apoptosis in human HeLa cells assessed as upregulation of Bax protein expression at 5 uM after 1 to 24 hrs by Western blotting analysis. In kind it is functional, cell-based.
Assay [6] concerns HeLa. Briefly: Cell cycle arrest in human HeLa cells assessed as accumulation at G2/M phase at 5 uM by propidium iodide staining-based FACS flow cytometric analysis (reference value: 15.0%). In kind it is functional. For orientation: In flow cytometry, cells or beads pass a laser one at a time.
In assay [7] the test system is HeLa. As to the kind of experiment: Cell cycle arrest in human HeLa cells assessed as accumulation at S phase at 5 uM by propidium iodide staining-based FACS flow cytometric analysis (reference value: 16.3%). In kind it is functional.
Assay [8] relates to HeLa. Briefly: Cell cycle arrest in human HeLa cells assessed as accumulation at G1 phase at 5 uM after 24 hrs by propidium iodide staining-based FACS flow cytometric analysis (reference value: 57.2%). It counts as functional.
Assay [9] has as its system HeLa. As to the kind of experiment: Cell cycle arrest in human HeLa cells assessed as accumulation at sub-G1 phase at 0.5 uM by propidium iodide staining-based FACS flow cytometric analysis (reference value: 4.4%). It counts as functional.
Assay [10] deals with HeLa. As to the kind of experiment: Induction of apoptosis in human HeLa cells assessed as upregulation of caspase-3 protein expression at 5 uM by Western blotting analysis. In kind it is functional, cell-based. To be noted: TDE = time-dependent effect. Background: Immunoblotting shows a protein as a band on a membrane.
Assay [11] has as its system HeLa. Briefly: Cell cycle arrest in human HeLa cells assessed as accumulation at G1 phase at 0.5 uM by propidium iodide staining-based FACS flow cytometric analysis (reference value: 54.7%). It counts as functional.
Assay [12] concerns HeLa. Briefly: Induction of apoptosis in human HeLa cells assessed as upregulation of p53 protein expression at 5 uM after 1 to 24 hrs by Western blotting analysis. In kind it is functional, cell-based.
The subject of assay [13] is HeLa. Briefly: Cell cycle arrest in human HeLa cells assessed as accumulation at S phase at 5 uM after 12 hrs by propidium iodide staining-based FACS flow cytometric analysis (reference value: 9.0%). In kind it is functional.
The test system of assay [14] is HeLa. As to the kind of experiment: Cell cycle arrest in human HeLa cells assessed as accumulation at G1 phase at 5 uM after 12 hrs by propidium iodide staining-based FACS flow cytometric analysis (reference value: 57.2%). It counts as functional.
In assay [15] the test system is HeLa. As to the kind of experiment: Cell cycle arrest in human HeLa cells assessed as accumulation at G2/M phase at 0.5 uM by propidium iodide staining-based FACS flow cytometric analysis (reference value: 15.0%). It counts as functional.
The test system of assay [16] is HeLa. Briefly: Induction of apoptosis in human HeLa cells assessed as upregulation of Bax protein expression at 5 uM by Western blotting analysis. In kind it is functional, cell-based. As to conditions: TDE = time-dependent effect.
The test system of assay [17] is HeLa. Briefly: Cell cycle arrest in human HeLa cells assessed as accumulation at G1 phase at 10 uM by propidium iodide staining-based FACS flow cytometric analysis (reference value: 54.7%). In kind it is functional.
The test system of assay [18] is HeLa. As to the kind of experiment: Induction of apoptosis in human HeLa cells assessed as upregulation of p53 protein expression at 5 uM by Western blotting analysis. In kind it is functional, cell-based. To be noted: TDE = time-dependent effect.
In assay [19] the test system is HeLa. Briefly: Cell cycle arrest in human HeLa cells assessed as accumulation at sub-G1 phase at 5 uM after 24 hrs by propidium iodide staining-based FACS flow cytometric analysis (reference value: 1.8%). In kind it is functional.
Assay [20] has as its system DNA. As to the kind of experiment: Binding affinity to calf thymus DNA assessed as increase in complex fluorescence using 1 to 6 uM of DNA at 1 uM after 5 mins by fluorescence assay. It counts as nucleic-acid assay. To be noted: Bos taurus.
Assay [21] concerns HeLa. Briefly: Cell cycle arrest in human HeLa cells assessed as accumulation at S phase at 0.5 uM by propidium iodide staining-based FACS flow cytometric analysis (reference value: 16.3%). In kind it is functional.
In assay [22] the test system is HeLa. As to the kind of experiment: Cell cycle arrest in human HeLa cells assessed as accumulation at sub-G1 phase by propidium iodide staining-based FACS flow cytometric analysis. It counts as functional.
For assay [23], the system named is DNA. Briefly: Binding affinity to calf thymus DNA assessed as change in DNA conformation from B-form to C-form at 5 to 40 ug/ml after 24 hrs by circular dichorism spectroscopy. It counts as nucleic-acid assay. To be noted: Bos taurus.
In assay [24] the test system is HeLa. Briefly: Cell cycle arrest in human HeLa cells assessed as accumulation at S phase at 5 uM after 24 hrs by propidium iodide staining-based FACS flow cytometric analysis (reference value: 9.0%). In kind it is functional.
Assay [25] concerns HeLa. Briefly: Cell cycle arrest in human HeLa cells assessed as accumulation at S phase at 10 uM by propidium iodide staining-based FACS flow cytometric analysis (reference value: 16.3%). In kind it is functional.
Assay [26] has as its system HeLa. As to the kind of experiment: Cell cycle arrest in human HeLa cells assessed as accumulation at G2/M phase at 5 uM after 24 hrs by propidium iodide staining-based FACS flow cytometric analysis (reference value: 22.7%). In kind it is functional.
Assay [27] relates to HeLa. Briefly: Induction of apoptosis in human HeLa cells assessed as upregulation of caspase-3 protein expression at 5 uM after 1 to 24 hrs by Western blotting analysis. In kind it is functional, cell-based.
The test system of assay [28] is HeLa. Briefly: Cell cycle arrest in human HeLa cells assessed as accumulation at sub-G1 phase at 10 uM by propidium iodide staining-based FACS flow cytometric analysis (reference value: 4.4%). In kind it is functional.
Assay [29] relates to HeLa. Briefly: Cell cycle arrest in human HeLa cells assessed as accumulation at G2/M phase at 5 uM after 12 hrs by propidium iodide staining-based FACS flow cytometric analysis (reference value: 22.7%). It counts as functional.
For assay [30], the system named is HeLa. Briefly: Cell cycle arrest in human HeLa cells assessed as accumulation at G1 phase at 5 uM by propidium iodide staining-based FACS flow cytometric analysis (reference value: 54.7%). In kind it is functional.
For assay [31], the system named is HeLa. As to the kind of experiment: Cell cycle arrest in human HeLa cells assessed as accumulation at G2/M phase at 10 uM by propidium iodide staining-based FACS flow cytometric analysis (reference value: 15.0%). It counts as functional.
The test system of assay [32] is HeLa. Briefly: Cell cycle arrest in human HeLa cells assessed as accumulation at sub-G1 phase at 5 uM by propidium iodide staining-based FACS flow cytometric analysis (reference value: 4.4%). In kind it is functional.
Assay [33] relates to HeLa. As to the kind of experiment: Cell cycle arrest in human HeLa cells assessed as accumulation at sub-G1 phase at 5 uM after 12 hrs by propidium iodide staining-based FACS flow cytometric analysis (reference value: 1.8%). It counts as functional.

The source made the active and inactive calls. The rule behind the calls is not given here.

A word on the IC50: it is the concentration at which inhibition is half-maximal. Low values mean greater potency, high ones weaker potency. The compound `COc1cc([C@@H]2c3cc4c(cc3[C@@H](O[C@@H]3O[C@@H]5CO[C@@H](C)O[C@H]5[C@H](O)[C@H]3O)[C@H]3COC(=O)[C@H]23)OCO4)cc(OC)c1O` [ETOPOSIDE] registered an IC50 in assay [1] of 2910 nM.

Regarding `COc1cc([C@@H]2c3cc4c(cc3[C@@H](OC(=O)N3CCN(C)CC3)[C@H]3COC(=O)[C@H]23)OCO4)cc(OC)c1O`, the IC50 in assay [2] worked out at 4180 nM; in [1], 20000 nM; in assay [3] it was 30 nM; in assay [4] it was 190 nM.

Turning to `COc1cc([C@@H]2c3cc4c(cc3[C@@H](OC(=O)N[C@H](C(=O)N3CCN(c5ccc([N+](=O)[O-])cc5)CC3)C(C)C)[C@H]3COC(=O)[C@H]23)OCO4)cc(OC)c1O`, the IC50 in assay [2] was 8320 nM; in [1] it was > 100000 nM; in [3], 10 nM; in [4] it was 260 nM.

Consider `COc1cc([C@@H]2c3cc4c(cc3[C@@H](OC(=O)N[C@@H](CCSC)C(=O)N3CCN(c5ccc([N+](=O)[O-])cc5)CC3)[C@H]3COC(=O)[C@H]23)OCO4)cc(OC)c1O`, for which the IC50 in assay [2] is > 100000 nM; in assay [1], 49400 nM; in [3] it was 570 nM; in assay [4], 10 nM.

In the case of `COc1cc([C@@H]2c3cc4c(cc3[C@@H](OC(=O)N3CCN(c5ccc([N+](=O)[O-])cc5)CC3)[C@H]3COC(=O)[C@H]23)OCO4)cc(OC)c1O`, the outcome in [5], in assay [12], in assay [20], in assay [23] and in assay [27] was Active. In addition, the Activity is 22.5% in assay [6]; 10.2% in assay [7]; 33.3% in [8]; 21.7% in assay [9]; “tde” in assay [10]; 35.9% in assay [11]. For the same compound, the Activity was 10.2% in assay [13]; 43.8% in [14]; 20.5% in assay [15]; “tde” in assay [16]; 26% in assay [17]; “tde” in assay [18]. In addition, the Activity in [19] was 11.1%; in assay [21], 9.8%; in [22], “Dose-dependent effect”; in assay [24] it was 10.2%; in [25], 13.1%; in assay [26], 38.1%. Besides, the Activity in [28] is listed as 24.7%; in [29], 29.9%; in assay [30], 33.9%; in assay [31] it was 29.1%; in [32] it was 23%; in assay [33], 4.1%. Further, the IC50 in assay [2] is 1670 nM; in assay [1] it was 74 nM; in [3], < 10 nM; in assay [4], 170 nM.

In the case of `COc1cc([C@@H]2c3cc4c(cc3[C@@H](OC(=O)NC3CC3)[C@H]3COC(=O)[C@H]23)OCO4)cc(OC)c1O`, the IC50 is 18300 nM in assay [2], 10800 nM in [1], 80 nM in [3] and 160 nM in assay [4].

On to `COc1cc([C@@H]2c3cc4c(cc3[C@@H](OC(=O)N3CCN(C5CCCC5)CC3)[C@H]3COC(=O)[C@H]23)OCO4)cc(OC)c1O`, for which the IC50 in [2] was 3890 nM; in [1], 4400 nM; in assay [3], 1620 nM; in [4] it was < 10 nM.

For `CCCNC(=O)O[C@@H]1c2cc3c(cc2[C@@H](c2cc(OC)c(O)c(OC)c2)[C@H]2C(=O)OC[C@@H]21)OCO3`, the 50% inhibitory concentration (IC50) in assay [2] stood at 8830 nM; in assay [1] it was 13200 nM; in assay [3] it was 185 nM; in [4], 90 nM.

`COc1cc([C@@H]2c3cc4c(cc3[C@@H](OC(=O)NC3CCCC3)[C@H]3COC(=O)[C@H]23)OCO4)cc(OC)c1O`: the IC50 amounted to 4540 nM in [2], 3750 nM in [1], 330 nM in assay [3] and 210 nM in assay [4].

(Values after ChEMBL document CHEMBL3091367, “Synthesis and evaluation of the apoptosis inducing and CT DNA interaction properties of a series of 4β-carbamoyl 4'-O-demethylepipodophyllotoxins” (Eur J Med Chem, 2013).)
